The values that follow come from ChEMBL document CHEMBL5380876, “Non-fused imidazole-biphenyl analogs repress triple-negative breast cancer growth by mainly stabilizing the c-MYC G-quadruplex via a multi-site binding mode” (Bioorg Med Chem, 2023).

Active and inactive are the calls of the source. The calls are words filed in the database; no cut-off is given here.

Data set [1] deals with Quadruplex DNA. Briefly: Stabilization of c-Myc G4 quadruplex DNA (unknown origin) assessed as temperature at which 50% protein unfold by circular dichroism melting assay. The data set is classed as nucleic-acid assay. (Circular dichroism is the unequal absorption of left and right circularly polarised light.)
In data set [2] the test system is A549. Put plainly: Cytotoxicity against human A549 cells assessed as reduction in cell viability by CCK8 assay. The data set is classed as functional, cell-based. (Tetrazolium dyes change colour on reduction, which living cells bring about.)
A short description of data set [3]: Cytotoxicity against human MCF-10A cells assessed as reduction in cell viability by CCK8 assay. The data set is classed as toxicity, cell-based.
Data set [4] has as its system MDA-MB-231. Put plainly: Cytotoxicity against human MDA-MB-231 cells assessed as reduction in cell viability by CCK8 assay. The class given is functional, cell-based.
The test system of data set [5] is KYSE-30. Briefly: Cytotoxicity against human KYSE-30 cells assessed as reduction in cell viability by CCK8 assay. The class given is functional, cell-based.
Data set [6] deals with HCC1806. Briefly: Cytotoxicity against human HCC1806 cells assessed as reduction in cell viability by CCK8 assay. The class given is functional, cell-based.
Data set [7] deals with HeLa. Put plainly: Cytotoxicity against human HeLa cells assessed as reduction in cell viability by CCK8 assay. The class given is functional, cell-based.
The nature of data set [8]: Toxicity in BALB/c mouse xenografted with human MDA-MB-231 cells assessed as effect on body weight at 2 mg/kg, ip administered every other day for 20 days and measured every 4 days. The class given is organism-based. The settings on record: in vivo, 480 h, time 20 day. (In xenograft studies the graft and the host belong to different species.)
Data set [9] relates to MDA-MB-231. Briefly: Antitumor activity against human MDA-MB-231 cells xenografted in BALB/c nude mouse assessed as reduction in tumor weight at 2 mg/kg, ip administered every other day for 20 days and measured every 4 days. The data set is classed as functional, organism-based. The settings on record: time 20.0 day.
Data set [10] deals with Quadruplex DNA. Put plainly: Stabilization of c-Myc G4 quadruplex DNA (unknown origin) assessed as temperature at 50% protein unfold by circular dichroism melting assay. The data set is classed as nucleic-acid assay.

The IC50 is the point on the concentration scale where inhibition reaches its midpoint. As to `CN1CCN(c2ccc(-c3nc(-c4ccc(-c5ccccc5C(F)(F)F)cc4)[nH]c3-c3ccc(N4CCN(C)CC4)cc3)cc2)CC1`, the T in [1] was 29.6 °C. Also, the IC50 in [2] was 1.7 µM; in data set [3], over 20 µM; in [4] it was 2.43 µM; in [5], 2.21 µM; in data set [6], 1.9 µM; in data set [7], 3.55 µM.
As for `COc1cccc2c1C(=O)c1c(O)c3c(c(O)c1C2=O)C[C@@](O)(C(=O)CO)C[C@@H]3O[C@H]1C[C@H](N)[C@H](O)[C@H](C)O1` [DOXORUBICIN], the Activity result in [8] was “Toxic”. Besides, in data set [9], the result was Active.
In the case of `COc1ccccc1-c1ccc(-c2nc(-c3ccc(N4CCN(C)CC4)cc3)c(-c3ccc(N4CCN(C)CC4)cc3)[nH]2)cc1`, the T in data set [1] was found to be 23.5 °C. The IC50 in data set [2] was 7.51 µM; in data set [3], over 20 µM; in [4], 8.19 µM; in data set [5], 8.64 µM; in [6], over 20 µM; in data set [7], over 20 µM.
For the molecule `CN1CCN(c2ccc(-c3nc(-c4ccc(-c5ccccc5)cc4)[nH]c3-c3ccc(N4CCN(C)CC4)cc3)cc2)CC1`, the T in [1] is 36.8 °C. The IC50 in data set [2] was 2.51 µM; in data set [3] it was 9.23 µM; in [4], 3.69 µM; in [5], 3.86 µM; in [6], 5.68 µM; in data set [7], 8.92 µM.
Regarding `CN1CCN(c2ccc(-c3nc(-c4ccc(-c5ccccn5)cc4)[nH]c3-c3ccc(N4CCN(C)CC4)cc3)cc2)CC1`, the T in [1] is 34.4 °C. In addition, the IC50 is 1.94 µM in data set [2]; 7.75 µM in [3]; 2.19 µM in data set [4]; 2.79 µM in data set [5]; 7.09 µM in [6]; 12.3 µM in data set [7].
On to `CN1CCN(c2ccc(-c3nc(-c4ccc(C(F)(F)F)cc4)[nH]c3-c3ccc(N4CCN(C)CC4)cc3)cc2)CC1`, for which the T in data set [10] came out at 28.4 °C.
Turning to `COc1ccc(-c2ccc(-c3nc(-c4ccc(N5CCN(C)CC5)cc4)c(-c4ccc(N5CCN(C)CC5)cc4)[nH]3)cc2)cc1`, in data set [1], the T worked out at 36.2 °C. Besides, the IC50 in [2] is 2.42 µM; in [3] it was 9.69 µM; in data set [4], 2.69 µM; in data set [5] it was 2.5 µM; in data set [6] it was 3.74 µM; in data set [7], 5.49 µM.
